These results are taken from US20240034753A1, “THERAPEUTIC PEPTIDES” (COHBAR, INC., priority 2020, published 2024).

Assay [1] has as its system A172 human brain glioblastoma cell line. Briefly: Caspase-Glo 3/7 assay of caspase 3/7 activity in cultured cells. To be noted: peptide 10 μM, 18-20 hours, relative to 0.1% DMSO control. Format: cell-based. Here is the method:
The effect of the peptides on cell death/survival can be assessed using a […] assay in cultured cells. Peptides were dissolved at 10 mM in DMSO as stock solutions for use at a final concentration of 10 μM. […] Caspase-Glo 3/7 Assay Reagent was purchased from Promega (Madison, WI). A172 human brain glioblastoma cell line was purchased from American Type Culture Collection (Manassas, VA). A172 cells were grown in DMEM supplemented with 10% FBS with 100 IU/ml penicillin and 100 μg/ml streptomycin. Cultures were maintained at 37° C. in a humidified atmosphere of 5% CO2/95% air. A172 cells were seeded at 8,000 cells per well on 96-well plates. […] Caspase 3/7 activity was determined using a Caspase-Glo 3/7 Assay kit (Promega) according to the manufacturer's instructions. Luminescence for each sample well on the plate was measured using a Cytation 3 plate reader (BioTek, Winooski, VT). Activity was calculated relative to 0.1% DMSO control.

Assay [2] concerns SH-SY5Y Neuroblastoma Cells. Briefly: ATP levels (CellTiter-Glo). Type of assay: cell-based, human. To be noted: peptide 10 μM, 18-20 hours, relative to 0.1% DMSO treated control. Put shortly: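 SH-SY5Y cells in DMEM/F12 with 10% FBS were seeded at 30,000 cells/well and treated with peptides at a final 10 μM (0.1% DMSO). Cellular ATP was measured by CellTiter-Glo luminescence. Activity was expressed relative to the 0.1% DMSO-treated control.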
In general terms: ATP-based viability assays read luminescence as a measure of living cells.

Another assay has as its system C2C12 Mouse Myoblasts. As to the kind of experiment: Glucose utilization (glucose remaining in medium). Type of assay: cell-based. To be noted: peptide 10 μM, 18-22 hours, relative to 0.1% DMSO treated control cells. In short, it runs like this: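 Differentiated C2C12 myotubes (2% horse serum, 1 g/L glucose DMEM) exposed to peptides at 10 μM (0.1% DMSO) for 18-22 h at 37° C. Glucose left in medium measured colorimetrically at 570 nm and expressed relative to 0.1% DMSO controls; metformin served as positive control.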

For assay [3], the system named is SH-SY5Y Neuroblastoma Cells Exposed to Staurosporine. As to the kind of experiment: ATP levels in cells exposed to staurosporine (CellTiter-Glo). To be noted: peptide 10 μM plus staurosporine (40 μM), 18-20 hours; <100% cytoprotective, >100% synergistic. Type of assay: cell-based, human. Here is the method:
Peptides were initially prepared as 10 mM stock in DMSO and tested at a final concentration of 10 μM (0.1% DMSO). […] […] CellTiter-Glo® Assay kit was purchased from Promega. SH-SY5Y human neuroblastoma cell line was purchased from American Type Culture Collection (Manassas, VA) and licensed from Memorial Sloan-Kettering Cancer Center (New York, NY). SH-SY5Y cells were grown in DMEM/F12 medium supplemented with 10% FBS with 100 IU/ml penicillin and 100 μg/ml streptomycin. Cultures were maintained at 37° C. in a humidified atmosphere of 5% CO2/95% air. SH-SY5Y cells were seeded at 30,000 cells per well on 96-well plates. […] ATP levels were determined using a CellTiter-Glo Assay kit (Promega) according to the manufacturer's instructions. Luminescence for each sample well on the plate was measured using a Cytation 3 plate reader (BioTek, Winooski, VT). […] A value less than 100% is indicative of a cytoprotective effect, while a value greater than 100% is indicative of a synergistic effect on viability.

Ends that are not written are not given here.

Regarding MMAGVIRGVLVL [compound 7], the “Caspase 3/7 Activity, Percent of Control Activity” value (shortened to “Caspase 3/7 Activity, Percent”) in assay [1] is recorded as 84.6%. The “ATP Levels, % Control” value in assay [2] turned out to be 103.9%. Further, the “Glucose Utilization (glucose concentration in medium), Percent of Untreated Control” value in the assay on C2C12 Mouse Myoblasts is 128.3%. In assay [3], the “Percent of ATP Reduction Induced by Control” value came to 103.3%.
For MRQWILHNGGMSFFC [compound 12], the “Caspase 3/7 Activity, Percent” value in assay [1] stood at 109.7%. For the same sequence, the “ATP Levels, % Control” value in assay [2] was 101.0%. The “Glucose Utilization (glucose concentration in medium), Percent of Untreated Control” value in the assay on C2C12 Mouse Myoblasts was 113.6%. Besides, the “Percent of ATP Reduction Induced by Control” value in assay [3] is 98.0%.
For MRRRMFSCYLY [compound 17], the “Caspase 3/7 Activity, Percent” value in assay [1] was found to be 91.3%. The “ATP Levels, % Control” value in assay [2] stood at 104.6%. Further, the “Glucose Utilization (glucose concentration in medium), Percent of Untreated Control” value with C2C12 Mouse Myoblasts is given as 121.7%. Moreover, the “Percent of ATP Reduction Induced by Control” value in assay [3] is on record as 94.2%.
Take RQWILHNGGMSFFC [compound 13]: the “Caspase 3/7 Activity, Percent” value in assay [1] is 115.8%. Moreover, the “ATP Levels, % Control” value in assay [2] worked out at 101.2%. Also, in the assay with C2C12 Mouse Myoblasts, the “Glucose Utilization (glucose concentration in medium), Percent of Untreated Control” value is given as 115.0%. For the same sequence, in assay [3], the “Percent of ATP Reduction Induced by Control” value was determined as 103.8%.
With RRRMFSCYLY [compound 18], the “Caspase 3/7 Activity, Percent” value in assay [1] came out at 95.7%. Besides, in assay [2], the “ATP Levels, % Control” value amounted to 108.6%. Also, in the assay with C2C12 Mouse Myoblasts, the “Glucose Utilization (glucose concentration in medium), Percent of Untreated Control” value came to 124.0%. Moreover, the “Percent of ATP Reduction Induced by Control” value in assay [3] was determined as 96.1%.
